{"source": "paper PMC8623273", "about": "“Novel N7-Arylmethyl Substituted Dinucleotide mRNA 5′ cap Analogs: Synthesis and Evaluation as Modulators of Translation” (Pharmaceutics, 2021)", "tested_on": "A549 cells", "assay": "translational efficiency of mRNAs capped with the analogs in A549 cells (Gaussia luciferase)", "type": "cell-based", "conditions": "mRNA capped with the analog; Gaussia luciferase activity in A549 cells 72 h post-transfection; normalized to m^7GpppG RNA", "description": "Finally, we tested the properties of arylmethyl cap analogs as reagents for co-transcriptional mRNA capping. […] Here, we sought to evaluate the translational properties of mRNAs capped with N7-arylmethyl analogs in cultured cells. To that end, the translation properties of transcripts capped with selected analogs were assessed in A549 cells. In vitro transcribed mRNAs encoding Gaussia luciferase, capped with compounds 1a–1k, 1m–1n, and 1p–1r or with reference analogues m^7GpppG and ARCA (m^7GmpppG), were purified via RP HPLC, transfected into A549 cells, and the protein activity (luminescence) was measured using a reporter assay at 72 h post-transfection. The total amount of protein produced over 72 h from each capped RNA was normalized to m^7GpppG RNA (Figure 6 and Figure S4). […] Namely, replacing the N7-methyl group with a benzyl moiety (1a) increased protein production over fivefold in A549 cells compared to m^7GpppG-capped mRNA (Figure 6).\nThe influence of N7-arylmethylated dinucleotide 5′ cap analogues on the translational properties of HPLC-purified IVT mRNA is shown in Figure S4, Measurements are total protein produced over 72 h by A549 cells transfected with capped mRNAs. Each plot in Figure S4 represents a single experiment consisting of three independent transfections of the cells at the same passage. Bars show mean value normalized to […] ± SD. In the main manuscript, all nine data points from three different cell passages were combined to present cumulative protein expression."}
{"substance": "m^7GmpppG [reference compound]", "values": [{"measurement": "Rel. Protein Expression", "value": "8.6 ± 1.0"}]}
